Data from patent US20210145801A1, “THERAPY FOR PROTEIN MISFOLDING DISEASE” (WREN THERAPEUTICS LIMITED, priority 2018, published 2021).
“Also recorded” adds a separate entry of the source. Like-named read-outs stand apart in the source and are kept apart here.

How the values were obtained:
[1] = biological target: T1, Aβ42 (Homo sapiens, UniProt P05067); assay: Seeded Aβ42 aggregation kinetics (2% or 50% preformed fibril seeds); format: biochemical; conditions: 2 μM Aβ42; 50% seeds; up to 20-fold excess
T1 construct: made in house; host or cells: E. coli BL21 Gold (DE3)
T1 sequence (P05067 671-713): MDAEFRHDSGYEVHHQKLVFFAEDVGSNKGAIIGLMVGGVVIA
Method: For the seeded experiments, preformed fibrils were prepared just prior to the experiment. Kinetic experiments were set up as described above for 5 μM Aβ42 samples in 20 mM sodium phosphate buffer, pH 8 with […] EDTA, 0.02% NaN3 and 20 μM ThT. The ThT fluorescence was monitored for 3 hours to verify the formation of fibrils. Samples were then collected from the wells into low-binding tubes. Under the considered conditions (i.e. 5 μM Aβ42), the monomer concentration is negligible at equilibrium. The final concentration of fibrils, in monomer equivalents, was considered equal to the initial concentration of monomer. Fibrils were then added to freshly prepared monomer in order to reach either 2% or 50% final concentration of seeds in the absence or the presence of Netoglitazone.
Inhibitors can interfere with the aggregation process by inhibiting one or more of the individual microscopic steps. […]

[2] = test system: AD worms (GMC101); conditions: GMC101, C. elegans, in vivo
Method: Briefly, Netoglitazone stocks (5 mM in 100% DMSO) were used at an appropriate concentration to seed 9-cm NGM plates. Plates were then placed in a laminar flow hood at room temperature (22° C.) for up to 4 hours to dry. C. elegans cultures were then transferred onto media seeded with compound as L4 stage or Day 3 for late treatments and incubated at 24° for the whole experiment. Experiments were carried out at different Netoglitazone concentrations ranging from 0.05 to 500 μM in 1% DMSO. As controls, plates seeded only with 1% DMSO were used.

[3] = Pharmacokinetic study, single oral dose; format: in vivo, male, Swiss Albino mice; conditions: 11.5 mg/kg p.o.; for concentration at 6 h: oral
Method: The pharmacokinetic profile was assessed in male, Swiss Albino mice in a discrete study using a single per oral dose of Netoglitazone (11.5 mg/kg, 30 μmoles/kg) formulated as a solution in 10% NMP/90% Solutol (as a 20% v/v solution in PBS). The dosing concentration was 2.3 mg/mL with a dosing volume of 5.0 mL/kg. Data were derived from the average of 3 animals per timepoint (terminal sampling). Plasma samples were collected at 0.25, 0.50, 1.0, 2.0, 4.0, 6.0, 8.0 and 24 hours by protein precipitation method with acetonitrile. Brain samples were collected at 6.0 and 24 hours by brain homogenisation and protein precipitation method with acetonitrile. Cerebrospinal fluid (CSF) samples were collected at 6.0 and 24 hours by protein precipitation method with acetonitrile. Samples were analysed using UHPLC with TOF mass spectrometry using electrospray ionisation.

[4] = test system: PD worms (NL5901); assay: Automated motility assay in PD worms; format: in vivo, C. elegans; conditions: same concentration range as in AD worms
Method: Standard conditions were used for the propagation of C. elegans (S. Brenner, The genetics of Caenorhabditis elegans. Genetics. 77, 71-94 (1974)). Briefly, the animals were synchronized by hypochlorite bleaching, hatched overnight in M9 buffer (3 g/l KH2PO4, 6 g/l Na2HPO4, 5 g/l NaCl, […]), and subsequently cultured at 20° C. on nematode growth medium (NGM) (CaCl2) 1 mM, MgSO4 1 mM, cholesterol 5 μg/mL, PBS Buffer (250 μM KH2PO4, 67.5 μM KCl, 3.425 mM of NaCl, pH 6), Agar 17 g/L, NaCl 3 g/1, casein 7.5 g/l) plates seeded with the E. coli strain OP50. […]
All C. elegans populations were cultured at 20° C. and developmentally synchronized from a 4 h egg-lay. At 64-72 h post-egg-lay (time zero), individuals were transferred to FUDR plates, and body movements were assessed over the times indicated. At different ages, the animals were washed off the plates with M9 buffer and spread over an OP-50 unseeded 9 cm plate, after which their movements were recorded at 20 fps using a recently developed microscopic procedure (M. Perni et al., Massively parallel C. elegans tracking provides multi-dimensional fingerprints for phenotypic discovery. J. Neurosci. Methods. 306, 57-67 (2018)) for 1 min. Up to 600 animals were counted in each experiment in duplicate unless stated otherwise. […]

[5] = male, Swiss Albino, mouse, plasma, po, single dose

O=C1NC(=O)C(Cc2ccc3cc(OCc4ccccc4F)ccc3c2)S1 (centres unmarked) [Netoglitazone]
Effect on aggregation kinetics / elongation (k+) with 50% preformed seeds [1]: did not affect the aggregation kinetics; also recorded: does not affect the elongation rates of Aβ42 aggregation | Maximum tolerable dose in AD worms [2]: less than 50 μM | Brain penetration across the blood brain barrier [3]: good brain penetration across the blood brain barrier | concentration at 6 h ([3]; male, Swiss Albino, mouse, CSF, read-out: CSF levels): 50 ng/mL | concentration at 6 h ([3]; male, Swiss Albino, mouse, brain homogenate, read-out: Total brain levels): 8540 ng/g | Cmax [3, 5]: 14400 ng/mL | Tmax [3, 5]: 6 h | Effect on mobility of PD worms [4]: negligible compared to the observed effect in AD worms
